From patent US20140272066A1, “GLUTAMIC ACID DERIVATIVES” (Givaudan S.A., priority 2011, published 2014)

Experiments:
[1] = Flavourist taste panel, solution B (with compound) rated against reference solution A; type: in vivo, human; details: 10 ppm compound in 0.5% NaCl and 0.03% MSG, vs solution A; scale -3 (much lower than base) to 3 (much higher); average of 4 flavourists
Procedure: Two solutions were prepared:
The samples were tasted by a small group of flavourists (2 male, 2 female, aged between 30 and 60). The intensity of the umami and salt taste of solution B was compared with that of the reference (solution A) and rated according to the following intensity scale:
The results (average of ratings given by the flavourists) were: […]

[2] = Flavourist comparison of white sauce with and without compound; type: in vivo, human; details: 200 ppm in white sauce; 4 flavourists
Procedure: A white sauce mix was prepared from 380 g of modified starch Prejel, 200 g of whey powder Esprion 300, 200 g of fat powder (ex DMV), 115 g of sodium chloride, 85.3 g of maltodextrin 14, 3 g of onion powder, 0.2 g of curcuma extract powder (ex turmeric), 1.5 g of white pepper and 15 g of probase high impact.
80 g of the well-mixed ingredients was added to 1 L of boiling water and stirred well.
A small group of flavourists (2 male, 2 female) compared the taste of the reference white sauce with that of a batch of the same white sauce containing 200 ppm of DL-threo-3-methylglutamic acid.

[3] = Flavourist comparison of bouillon with and without compound; type: in vivo, human; details: 200 ppm in bouillon; 4 flavourists
Procedure: A bouillon mix was prepared from 155.0 g of sodium chloride, 157.0 g of dextrose monohydrate (ex Tapioca), 0.2 g of celery oleoresin, 0.3 g of oleoresin turmeric Vegex, 0.2 g of oleoresin coriander seed, 444.8 g maltodextrin 5-8 DE, 40.0 g vegetable oil soya bean refined, 30.0 g yeast standard light, 4.0 g of onion powder, 4.0 g of garlic powder, 0.5 g of white pepper and 164.0 g of potato starch.
32 g of the well-mixed ingredients was added to 1 L of boiling water and stirred until completely dissolved.
A small group of flavourists (2 male, 2 female) compared the taste of the reference bouillon with that of a batch of the same bouillon containing 200 ppm of DL-threo-3-methylglutamic acid.

[4] = Flavourist comparison of Béchamel sauce with cheese with and without compound; type: in vivo, human; details: 200 ppm in Béchamel sauce with cheese; 4 flavourists
Procedure: A Béchamel sauce with cheese was prepared from 70 g of butter, 50 g of flower, 1000 g of milk, 5 g of sodium chloride, 0.3 g of MSG, 0.15 g of nutmeg powder, 0.25 g of black pepper and 80 g of cheese powder. A blanc roux was prepared from the butter and flower before adding the other ingredients.
A small group of flavourists (2 male, 2 female) compared the taste of the reference Béchamel sauce with cheese with that of a batch of the same Béchamel sauce with cheese containing 200 ppm of DL-threo-3-methylglutamic acid.

[5] = at concentrations comparable to MSG; cited from earlier work

Row | Compound | Intensity Taste Salt (NaCl) [1] | Intensity Taste Umami [1] | Taste of test white sauce compared with reference sauce [2] | Taste of test bouillon compared with reference bouillon [3] | Taste of test Béchamel sauce with cheese compared with reference [4] | Umami taste [5]
1 | CC(CC(=O)O)C(N)C(=O)O (racemic) [DL-threo-3-methylglutamic acid, DL-threo-3-methylglutamic Acid] | 0.33 | 1.00 | fuller and slightly more umami | more umami, had an enhanced body of salt and was more salivating | richer and more longlasting | 
2 | CCCCCC(CC(=O)O)C(N)C(=O)O (stereo not shown) [2-amino-3-pentylpentanedioic acid, 2-amino-3-pentylpentanedioic Acid] | 0.00 | 0.33 |  |  |  | 
3 | CCCC(CC(=O)O)C(N)C(=O)O (stereo not shown) [2-amino-3-propylpentanedioic acid, 2-amino-3-propylpentanedioic Acid] | 0.33 | 0.33 |  |  |  | 
4 | N[C@@H](CC(=O)O)C(=O)O [aspartic acid] |  |  |  |  |  | hardly any umami taste
